Test results taken from US11321826B2, “High throughput method for accurate prediction of compound-induced liver injury” (AGENCY FOR SCIENCE, TECHNOLOGY AND RESEARCH, priority 2016, dated 2022).
Like-named read-outs stand apart in the source and are kept apart here. Where a SMILES comes first, the peptide text is derived from it.

Assays:
hepatocytes in vivo = settings: cited from earlier work
[1] = tested on: other organs than the liver; settings: in vivo; cited from earlier work
HepaRG cells = experiment: High-content imaging of HepaRG cells after fluorescent staining of RELA and nuclear DNA; settings: 16 h treatment; puromycin 100 μg/mL, acarbose 1000 μg/mL, tetracycline 1000 μg/mL, ethylene glycol 100 μg/mL, lithium chloride 1000 μg/mL; FIG. 3
Description: The HepG2 cells were cultured in T75 Corning Costar flasks with Dulbecco's modified eagle medium (DMEM) supplemented with 10% fetal bovine serum (FBS) and 1% penicillin-streptomycin. The HepG2 cells were seeded into 384-well black plates with transparent bottom (#781091; Greiner, Kremsmuenster, Austria) at a density of 10.000 cells/cm^2. The HepG2 cells were cultured for three days to attain confluency before overnight compound treatment of sixteen hours. The HepaRG cells were directly seeded at a density of 250.000 cells/cm^2 into 384-well black plates with transparent bottom (#781091; Greiner) coated with 100 μg/mL collagen I. For the first twenty-four hours of cultivation a Williams E medium, supplemented with HepaRG Thaw, Plate & General Purpose medium was used. […]
Screening was performed by using a dose-range of the following seven concentrations for each compound: 2 μM, 15 μM, 63 μM, 125 μM, 250 μM, 500 μM and 1 mM. […] Z′ values of each plate were calculated and values were all above 0.5, ranging from 0.62 to 0.89.
Cells were fixed for six hours with 3.7% formaldehyde in phosphate-buffered saline (PBS) after sixteen hours of compound exposure. […] F-actin was detected on every plate with rhodamine phalloidin (#R415; 1:100; Invitrogen, Singapore). […]

[2] = classification based on literature on compound-induced clinical effects in humans

| SMILES | toxicity for hepatocytes in vivo (hepatocytes in vivo; [2]) | other results |
| --- | --- | --- |
| Cn1cnc([N+](=O)[O-])c1Sc1ncnc2nc[nH]c12 [Azathioprine] | toxic | – |
| CN1CCCC1c1cccnc1 (centres unmarked) [Nicotine] | – | toxicity for hepatocytes in vivo (hepatocytes in vivo; human, in vivo): not toxic |
| COc1ccc(C[C@H](N)C(=O)N[C@H]2[C@@H](O)[C@H](n3cnc4c(N(C)C)ncnc43)O[C@@H]2CO)cc1 [Puromycin, puromycin] | toxic | – |
| [Cl-].[Li+] [lithium chloride] | – | toxicity in humans for other organs than the liver [1]: nephrotoxic |
| Cn1c(=O)c2c(ncn2C)n(C)c1=O [Caffeine] | not toxic | – |
| CN(C)[C@@H]1C(O)=C(C(N)=O)C(=O)[C@@]2(O)C(O)=C3C(=O)c4c(O)cccc4[C@@](C)(O)[C@H]3C[C@@H]12 [tetracycline] | toxic for hepatocytes in vivo | – |
| OCCO [Ethylene glycol, ethylene glycol] | – | toxicity in humans for other organs than the liver [1]: nephrotoxic and neurotoxic; phenotypic changes / altered distribution of RELA (NF-κB p65) in HepaRG cells versus vehicle control (HepaRG cells): did not induce obvious phenotypic changes |
| COC(=O)[C@H](Cc1ccccc1)NC(=O)[C@@H](N)CC(=O)O [Aspartame] (H-Asp-Phe-OMe) | not toxic | – |
| C[C@H]1O[C@H](O[C@H]2[C@H](O)[C@@H](O)[C@@H](O[C@H]3[C@H](O)[C@@H](O)C(O)O[C@@H]3CO)O[C@@H]2CO)[C@H](O)[C@@H](O)[C@@H]1N[C@H]1C=C(CO)[C@@H](O)[C@H](O)[C@H]1O (some centres unmarked) [acarbose] | toxic for hepatocytes in vivo | – |
| [Cl][Cd][Cl] [Cadmium Chloride] | toxic | – |
